Assay results published in patent US11051510B2, “Asymmetric formales and acetales as adjuvants for crop protection” (BASF SE, priority 2014, dated 2021).

System: Puccinia recondita
Assay: Greenhouse test on wheat infected with Puccinia recondita at full and reduced dose rate (Example 12)
Assay type: in vivo, Puccinia recondita on wheat (species "Kanzler")
Settings: for Infected leaf area at 25% dose rate: 2.5 g/ha pesticide (epoxiconazole) and 5 g/ha adjuvant; for Infected leaf area at 100% dose rate: 10 g/ha pesticide (epoxiconazole) and 20 g/ha adjuvant
Description: The biological activity was assessed in a greenhouse on wheat (species “Kanzler”), which was infected with Puccinia recondita at two leafs stage and incubated for three days at high humidity. The plants were sprayed (spray volume 200 l/ha) with a composition comprising 50 ppm (10 g/ha) epoxiconazole and 100 ppm (20 g/ha) of the respective adjuvant samples from Example 1-9. In the comparative example no adjuvant was added. The plants were further cultivated for ten days at 20-24° C. and 60-90% relative humidity. Finally, the percentage of the infected leaf area was visually inspected. Each value was based on three replicates.
The biological activity was assessed in a greenhouse as described in Example 11 with a dose rate of 10 g/ha pesticide and 20 g/ha adjuvant (“100%” in Table 4) and a reduced dose rate of 2.5 g/ha pesticide and 5 g/ha adjuvant (“25%” in Table 4). In this test the adjuvants from Example 1 (formula A), Example 2 (formula B) and as comparative adjuvant butyl endcapped ethoxylated (5EO) n-dodecanol (formula C) were compared. All three compounds are butyl endcapped. Formula A and C have the same degree of ethoxylation of five ethylene oxide (EO) units. Formula B (only 3 EO) and C have a similar overall molecule weight. n-C12-18—[O—CH2—CH2]5—O—CH2—O—CH2—CH2—O—Bu (A) n-C12-18—[O—CH2—CH2]3—O—CH2—O—CH2—CH2—O—Bu (B) n-C12[O—CH2—CH2]5—Bu (C)

Substance	Infected leaf area at 25% dose rate [%]	Infected leaf area at 100% dose rate [%]
n-C12-18—[O—CH2—CH2]5—O—CH2—O—CH2—CH2—O—Bu [(A)]	23	7
n-C12-18—[O—CH2—CH2]3—O—CH2—O—CH2—CH2—O—Bu [(B)]	13	6
butyl endcapped ethoxylated (5EO) n-dodecanol [(C), reference compound]	38	8
